Laboratory results as given in the supplement of paper PMC10307832.

Tests used:
Test in all cases: relative viability (nuclei count vs DMSO), 5 days (fraction); higher = more cells survive
Cediranib + Phenformin = compound: COc1cc2c(Oc3ccc4[nH]c(C)cc4c3F)ncnc2cc1OCCCN1CCCC1 [Cediranib] + N=C(N)NC(=N)NCCc1ccccc1 [Phenformin] (partner 250 µM)
In short: (§1)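 Relative viability equals treated-well nuclei counts divided by vehicle-well nuclei counts. Counts came from 4× images of lung cancer cell lines grown in 1536-well plates for 5 days after pin-tool dosing on the day after seeding. Dosing used one drug alone or a fixed anchor-drug dose plus five library-drug doses (not always all listed) in √10 steps, and values are medians of duplicate plates.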

[1] = compound: O=C(C[C@H]1NCCC[C@@H]1O)Cn1cnc2cc(Br)c(Cl)cc2c1=O (racemic) [Halofuginone] + Nc1nc2[nH]cc(CCc3ccc(C(=O)N[C@@H](CCC(=O)O)C(=O)O)cc3)c2c(=O)[nH]1 [Pemetrexed] (partner 0.2 µM)
In short: as §1

Cediranib + Navitoclax = compound: COc1cc2c(Oc3ccc4[nH]c(C)cc4c3F)ncnc2cc1OCCCN1CCCC1 [Cediranib] + CC1(C)CCC(c2ccc(Cl)cc2)=C(CN2CCN(c3ccc(C(=O)NS(=O)(=O)c4ccc(N[C@H](CCN5CCOCC5)CSc5ccccc5)c(S(=O)(=O)C(F)(F)F)c4)cc3)CC2)C1 [Navitoclax] (partner 0.5 µM)
In short: as §1

Decitabine + Phenformin = compound: Nc1ncn([C@H]2C[C@H](O)[C@@H](CO)O2)c(=O)n1 [Decitabine] + N=C(N)NC(=N)NCCc1ccccc1 [Phenformin] (partner 250 µM)
In short: as §1

Cell Line	relative viability (Cediranib + Phenformin; first compound 0.04 µM)	relative viability (Cediranib + Phenformin; first compound 0.1265 µM)	relative viability (Cediranib + Phenformin; first compound 0.4 µM)	relative viability (Cediranib + Phenformin; first compound 1.265 µM)	relative viability (Cediranib + Phenformin; first compound 4 µM)	relative viability ([1]; first compound 0.001 µM)	relative viability ([1]; first compound 0.003162 µM)	relative viability ([1]; first compound 0.01 µM)	relative viability ([1]; first compound 0.03162 µM)	relative viability ([1]; first compound 0.1 µM)	relative viability (Cediranib + Navitoclax; first compound 0.04 µM)	relative viability (Cediranib + Navitoclax; first compound 0.1265 µM)	relative viability (Cediranib + Navitoclax; first compound 0.4 µM)	relative viability (Cediranib + Navitoclax; first compound 1.265 µM)	relative viability (Cediranib + Navitoclax; first compound 4 µM)	relative viability (Decitabine + Phenformin; first compound 0.04 µM)	relative viability (Decitabine + Phenformin; first compound 0.1265 µM)	relative viability (Decitabine + Phenformin; first compound 0.4 µM)	relative viability (Decitabine + Phenformin; first compound 1.265 µM)	relative viability (Decitabine + Phenformin; first compound 4 µM)
LXF-289	0.565	0.404	0.487	0.49	0.549	0.913	0.972	0.849	0.864	0.788	0.97	0.878	0.948	0.926	0.957	0.431	0.371	0.263	0.26	0.228
NCI-H23	0.756		0.724	0.683	0.867	0.637	0.582	0.494	0.521	0.495	0.974		0.615	0.702	0.794	0.579	0.548	0.297	0.242	0.244
NCI-H322M	0.879	0.862	0.728	0.849	0.8	0.633	0.63	0.554	0.586	0.398	1.22	1.21	1.08	1.21	1.14	0.647	0.745	0.6	0.478	0.549
NCI-H441	0.658		0.802	0.763	0.991	0.28	0.263	0.205	0.261	0.246	0.466	0.63		0.763	0.573	0.494	0.428	0.306	0.289	0.231
NCI-H460	0.528	0.576	0.527	0.512	0.56	0.0584	0.0659	0.0638	0.0536	0.0574	1.12	1.1	0.938	0.993	1.33	0.473	0.473	0.472	0.223	0.157
NCI-H520	0.704	0.543	0.503	0.363	0.464	0.726	0.662	0.784	0.611	0.246	1.15		0.926	1.09	1.2	0.42	0.347	0.37	0.328	0.288
NCI-H596	0.723	0.703	0.722		0.718	0.514	0.506	0.468	0.511	0.451	0.943	0.926	0.938	0.879	0.996	0.815	0.666		0.582	0.53
NCI-H647	0.513	0.504	0.47	0.605	0.441	0.191	0.171	0.172	0.155	0.0946	1.11		1.16	1.12	1.14	0.372	0.399	0.25	0.101	0.172
NCI-H838	0.588	0.513	0.49	0.452	0.603	0.266	0.256	0.249	0.189	0.128	1.17	1.07	1.17	1.1	1.41	0.398	0.409	0.247	0.266	0.242
NCI-H1355	0.441	0.456	0.427	0.442	0.408	1.07	1	1.02	1.03	0.919	0.94	0.954	0.898	0.936	1.04	0.432	0.385	0.338	0.277	0.323
NCI-H1395	0.49	0.427	0.467	0.444	0.42	0.873	0.822	0.991	0.696	0.571	1.23		1.23	1.13	1.05	0.398	0.407	0.46	0.411	0.399
NCI-H1437	0.317	0.285	0.332	0.363	0.369	0.318	0.337	0.329	0.307	0.254	1.14	1.17	1.06	1.07	1.13	0.29	0.311	0.209	0.233	0.26
NCI-H1650	0.436	0.581	0.351	0.362	0.341	0.339	0.388	0.375	0.325	0.284	1.19	1.29	1.08	1.12	0.751	0.309	0.386	0.303	0.246	0.361
NCI-H1651	0.321	0.327	0.277	0.321	0.311	0.56	0.489	0.568	0.572	0.592	1.04	1.01	0.899	1.02	1.18	0.331	0.345	0.383	0.287	0.318
NCI-H1666	0.564	0.488	0.524	0.548	0.579	0.883	0.78	0.904	0.878	0.806	0.875	1	0.989	1.09	1.1	0.617	0.568	0.522	0.506	0.593
NCI-H1734	0.403	0.458	0.383	0.388	0.433	0.408	0.438	0.401	0.441	0.488	0.759	0.83	0.846	0.807	0.842	0.348	0.38	0.382	0.276	0.274

Cell Line	relative viability (Cediranib + Phenformin; first compound 0.04 µM)	relative viability (Cediranib + Phenformin; first compound 0.1265 µM)	relative viability (Cediranib + Phenformin; first compound 0.4 µM)	relative viability (Cediranib + Phenformin; first compound 1.265 µM)	relative viability (Cediranib + Phenformin; first compound 4 µM)	relative viability ([1]; first compound 0.001 µM)	relative viability ([1]; first compound 0.003162 µM)	relative viability ([1]; first compound 0.01 µM)	relative viability ([1]; first compound 0.03162 µM)	relative viability ([1]; first compound 0.1 µM)	relative viability (Cediranib + Navitoclax; first compound 0.04 µM)	relative viability (Cediranib + Navitoclax; first compound 0.1265 µM)	relative viability (Cediranib + Navitoclax; first compound 0.4 µM)	relative viability (Cediranib + Navitoclax; first compound 1.265 µM)	relative viability (Cediranib + Navitoclax; first compound 4 µM)	relative viability (Decitabine + Phenformin; first compound 0.04 µM)	relative viability (Decitabine + Phenformin; first compound 0.1265 µM)	relative viability (Decitabine + Phenformin; first compound 0.4 µM)	relative viability (Decitabine + Phenformin; first compound 1.265 µM)	relative viability (Decitabine + Phenformin; first compound 4 µM)
NCI-H1755	0.528	0.519	0.616	0.618	0.677	0.418	0.469	0.413	0.423	0.484	1.05	1	0.974	0.998	1.07	0.625	0.629	0.43	0.442	0.465
NCI-H1792	0.237	0.41	0.197	0.322	0.284	0.922	0.813	0.53	0.891	0.391	0.446	0.442	0.588	0.668	0.393	0.445	0.275	0.707	0.262	0.175
NCI-H1793	0.231	0.32	0.39		0.393	0.906	0.734	0.7	0.843	0.515	0.59	0.468	0.461		0.46	0.384	0.411	0.336	0.305	0.244
NCI-H1915	0.371	0.331	0.372	0.374	0.364	0.499	0.546	0.513	0.392	0.465	0.787	0.721	0.805	0.788	0.811	0.291	0.294	0.274	0.242	0.26
NCI-H1944	0.211	0.223	0.167	0.205	0.235	0.611	0.62	0.579	0.586	0.496	1.08	1.11	0.95	0.981	1.01	0.191	0.21	0.227	0.166	0.199
NCI-H1975	0.421	0.415	0.394	0.459	0.426	0.281	0.297	0.274	0.263	0.146	1.18	1.13	0.956	1.19	1.21	0.281	0.27	0.214	0.229	0.197
NCI-H1993	0.423	0.5	0.484	0.523	0.393	0.664	0.577	0.564	0.652	0.508	1.05	0.935	0.981	0.733	1.09	0.558	0.494	0.507	0.504	0.478
NCI-H2009	0.492	0.434	0.481	0.481	0.493	1.04	0.999	0.999	0.977	0.548	1.2	1.14	1.16	1.14	1.11	0.433	0.4	0.333	0.282	0.286
NCI-H2023	0.417	0.443	0.396	0.42	0.458	0.297	0.185	0.213	0.152	0.0841	0.997	1.02	1.01	0.997	0.988	0.31	0.346	0.222	0.163	0.161
NCI-H2085	0.655	0.844	0.632	0.753	0.814	0.93	0.873	0.872	1.03	0.783	1.19	1.04	1.13	1.09	1.26	0.516	0.51	0.381	0.361	0.394
NCI-H2087	0.382	0.45	0.402	0.452	0.546	0.673	0.657	0.686	0.709	0.489	1.07	0.914	1.01	0.984	1.07	0.411	0.359	0.291	0.242	0.25
NCI-H2126	0.515	0.526	0.53	0.516	0.538	0.719	0.655	0.624	0.68	0.571	0.8	0.934	0.781	0.811	0.914	0.478	0.483	0.423	0.451	0.468
NCI-H2170	0.373	0.284	0.403	0.406	0.419	0.271	0.202	0.273	0.25	0.275	0.691	0.671	0.567	0.61	0.713	0.345	0.365	0.291	0.269	0.282
NCI-H2228	0.278	0.272	0.278	0.285	0.319	0.32	0.29	0.345	0.273	0.074	0.791	0.968	0.883	1.22	1.1	0.271	0.252	0.103	0.154	0.192
NCI-H2347	0.34	0.236	0.383	0.386	0.41	0.412	0.445	0.432	0.43	0.429	0.886	0.754	0.748	0.831	0.891	0.472	0.384	0.413	0.467	0.326
NCI-H2405	0.358	0.422	0.378	0.38	0.368	1.14	1.07	0.978	0.989	0.638	0.766	1.01	0.79	1.11	0.838	0.388	0.39	0.408	0.321	0.366
